Experimental data taken from patent US9512139B2, “Conformationally constrained, fully synthetic macrocyclic compounds” (POLYPHOR AG, priority 2009, dated 2016).

Legend:
in vitro [1] = format: in vitro ADME, human; conditions: human, plasma; for Plasma Stability 240 min hum [% remain.]: 4 h
in vitro [2] = format: in vitro ADME, mouse; conditions: plasma; for Plasma Stability 240 min mouse [% remain.]: 4 h
[3] = Metabolic stability assay, human microsomes; format: in vitro ADME; conditions: human, microsomes; for half-life at 10 µM: both sexes; for Metabolic Stability 60 min hum [% remain.]: 1 h
Experimental: (§1) 4. Plasma and Metabolic Stability Assays
(§2) The assays were conducted according to literature precedents (F. P. Guengerich, Analysis and Characterization of Enzymes; in: Principles and Methods of Toxicology; A. W. Hayes (Ed.) Raven Press: New York, 1989, 777-813; R. Singh et al., In vitro metabolism of a potent HIV-protease inhibitor (141W94) using rat, monkey and human liver S9, Rapid Commun. Mass Spectrom. 1996, 10, 1019-1026).
(§3) Metabolic Stability Assay
(§4) Microsomes from a human 50 donor mixed gender pool and 1:1 mixtures of microsomes from CD-1 mouse single-gender pools are purchased from Celsis (Belgium). The enzymatic reaction is performed in a buffer containing an NADPH regeneration system and microsomes with the following end concentrations: 100 mM potassium phosphate buffer (all from Sigma), 1 mg/mL glucose-6-phosphate, 1 mg/mL β-nicotinamide adenine dinucleotide phosphate (NADP), 0.65 mg/mL magnesium chloride, 0.8 units/mL of glucose-6-phosphate dehydrogenase (prediluted with 5 mM citrate buffer), 10 μM compound and 1 mg/ml microsomal protein. Compounds are incubated at 37° C. in duplicates and samples are taken after 0, 20 and 60 minutes. After acetonitrile precipitation (2 volumes) and HPLC/MS/MS analysis metabolic turnover is expressed in % of the initial 0 minutes value and half life T½ (min) is calculated. Verapamil for human and propranolol for mouse are used as reference and are assayed with every experimental set.

[4] = Metabolic stability assay, CD-1 mouse microsomes; format: in vitro ADME; conditions: microsomes; for half-life at 10 µM: both sexes; for Metabolic Stability 60 min mouse [% remain.]: 1 h
Experimental: as §1, §2, §3, §4
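Throughout, for Plasma Stability 240 min mouse [% remain.]: sodium citrate stabilized mouse plasma, parent compound quantified by HPLC/MS/MS relative to its peak area at time zero, run in triplicate.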
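Throughout, for Plasma Stability T½ [min] mouse: sodium citrate stabilized mouse plasma, parent compound quantified by HPLC/MS/MS relative to its peak area at time zero, run in triplicate.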

SMILES	Plasma Stability 240 min hum [% remain.] (in vitro [1]; 10 µM)	Plasma Stability 240 min mouse [% remain.] (in vitro [2]; both, CD-1, mouse, 10 µM)	half-life at 10 µM [3] [h]	Metabolic Stability 60 min hum [% remain.] ([3]; both, 10 µM)	half-life at 10 µM ([4]; CD-1, mouse) [h]	Metabolic Stability 60 min mouse [% remain.] ([4]; both, CD-1, mouse, 10 µM)	Plasma Stability T½ [min] hum (in vitro [1]; 10 µM) [min]	Plasma Stability T½ [min] mouse (in vitro [2]; both, CD-1, mouse, 10 µM) [min]	Metabolic Stability T½ [min] mouse ([4]; both, CD-1, mouse, 10 µM) [min]	Metabolic Stability T½ [min] hum ([3]; both, 10 µM) [min]	Plasma Stability T½ [min] hum (in vitro [1]) [min]	Plasma Stability 240 min hum [% remain.] (in vitro [1])	Plasma Stability T½ [min] mouse (in vitro [2]; mouse) [min]	Plasma Stability 240 min mouse [% remain.] (in vitro [2]; mouse)	Metabolic Stability T½ [min] hum [3] [min]	Metabolic Stability 60 min hum [% remain.] [3] [% remain.]	Metabolic Stability T½ [min] mouse ([4]; mouse) [min]	Metabolic Stability 60 min mouse [% remain.] ([4]; mouse)
CN(C)CCNC(=O)[C@H]1CCC(=O)N(C)CC(=O)N2CCN(C(=O)Cc3ccc4ccccc4c3)C[C@@H]2COc2ccc(F)cc2C(=O)N1C [Ex. 138, (12R,20aR)-N-[2-(dimethylamino)ethyl]-16-fluoro-8,13-dimethyl-2-[2-(2-naphthyl)acetyl]-6,9,14-trioxo-1,2,3,4,7,8,9,10,11,12,13,14,20,20a-tetradecahydro-6H-pyrazino[2,1-c][1,4,7,12]benzoxatriazacyclopentadecine-12-carboxamide]	89	78		62		99	> 240	> 240	> 60	> 60								
CC(=O)N[C@H]1C[C@H]2COc3ccc(F)cc3C(=O)N(C)[C@H](C(=O)N3CCCC3)CCC(=O)N(C)CC(=O)N2C1 [Ex. 37, N-[(2S,11S,19aS)-15-fluoro-7,12-dimethyl-5,8,13-trioxo-11-(1-pyrrolidinylcarbonyl)-2,3,6,7,8,9,10,11,12,13,19,19a-dodecahydro-1H,5H-pyrrolo[2,1-c] [1,4,7,12]benzoxatriazacyclo-pentadecin-2-yl]acetamide]											> 240	77	> 240	100	> 60	100	> 60	100
CCN(CC)[C@H]1C[C@H]2COc3ccc(F)cc3C(=O)N(C)[C@H](C(=O)N3CCCC3)CCC(=O)N(C)CC(=O)N2C1 [Ex. 43, (2S,11S,19aS)-2-(diethylamino)-15-fluoro-7,12-dimethyl-11-(1-pyrrolidinylcarbonyl)-2,3,6,7,9,10,11,12,19,19a-decahydro-1H,5H-pyrrolo [2,1-c] [1,4,7,12]benzoxatriazacyclopentadecine-5,8,13-trione]	82	89		100		98	> 240	> 240	> 60	> 60								
CC(C)CN1C[C@H]2C[C@H]1COc1ccc(F)cc1C(=O)N(C)CCC[C@H](NC(=O)Cc1ccccc1)C(=O)N2 [Ex. 407, N-[(1S,15S,18R)-7-fluoro-20-isobutyl-11-methyl-10,16-dioxo-3-oxa-11,17,20-triazatricyclo[16.2.1.0^4,9]henicosa-4,6,8-trien-15-yl]-2-phenylacetamide]	80	98	0.85	47		84	> 240	> 240	> 60									
CN1CCC[C@H](N)C(=O)N2C[C@@H](OCc3ccc(-c4cccnc4)cc3)C[C@H]2COc2cccc(c2)C1=O [Ex. 578, (4S,6S,10S)-10-amino-14-methyl-6-{[4-(3-pyridinyl)benzyl]oxy}-2-oxa-8,14-diazatricyclo[14.3.1.0^4,8]icosa-1(20),16,18-triene-9,15-dione]	100	86	0.867	46		55	> 240	> 240	> 60									
CN1CCC[C@H](N)C(=O)N2C[C@@H](OCc3ccc(-c4cncnc4)cc3)C[C@H]2COc2cccc(c2)C1=O [Ex. 577, (4S,6S,10S)-10-amino-14-methyl-6-{[4-(5-pyrimidinyl)benzyl]oxy}-2-oxa-8,14-diazatricyclo[14.3.1.0^4,8]icosa-1(20),16,18-triene-9,15-dione]	87	101	0.783	41	0.45	25	> 240	> 240										
CC(=O)N[C@H]1CN(C)C(=O)c2cccc(c2)OC[C@@H]2C[C@H](NC(=O)CN(C)C)CN2C(=O)CN(C)C1=O [Ex. 208, N-[(4S,6S,13S)-13-(acetylamino)-11,15-dimethyl-9,12,16-trioxo-2-oxa-8,11,15-triazatricyclo[15.3.1.0^4,8]henicosa-1(21),17,19-trien-6-yl]-2-(dimethylamino)acetamide]	98	90		84		100	> 240	> 240	> 60	> 60								

Second part, the molecule after the results:

Plasma Stability 240 min hum [% remain.] (in vitro [1]; 10 µM)	Plasma Stability 240 min mouse [% remain.] (in vitro [2]; both, CD-1, mouse, 10 µM)	half-life at 10 µM [3] [h]	Metabolic Stability 60 min hum [% remain.] ([3]; both, 10 µM)	half-life at 10 µM ([4]; CD-1, mouse) [h]	Metabolic Stability 60 min mouse [% remain.] ([4]; both, CD-1, mouse, 10 µM)	Plasma Stability T½ [min] hum (in vitro [1]; 10 µM) [min]	Plasma Stability T½ [min] mouse (in vitro [2]; both, CD-1, mouse, 10 µM) [min]	Metabolic Stability T½ [min] mouse ([4]; both, CD-1, mouse, 10 µM) [min]	Metabolic Stability T½ [min] hum ([3]; both, 10 µM) [min]	Plasma Stability T½ [min] hum (in vitro [1]) [min]	Plasma Stability 240 min hum [% remain.] (in vitro [1])	Plasma Stability T½ [min] mouse (in vitro [2]; mouse) [min]	Plasma Stability 240 min mouse [% remain.] (in vitro [2]; mouse)	Metabolic Stability T½ [min] hum [3] [min]	Metabolic Stability 60 min hum [% remain.] [3] [% remain.]	Metabolic Stability T½ [min] mouse ([4]; mouse) [min]	Metabolic Stability 60 min mouse [% remain.] ([4]; mouse)	SMILES
97	75	0.583	22	0.6	25													CCCCC(=O)N[C@H]1C[C@H]2COc3ccc(F)cc3C(=O)N(C)[C@@H](C(=O)NCc3ccc4ccccc4c3)CCC(=O)N(C)CC(=O)N2C1 [Ex. 103, (2S,11R,19aS)-15-fluoro-7,12-dimethyl-N-(2-naphthylmethyl)-5,8,13-trioxo-2-(pentanoylamino)-2,3,6,7,8,9, 10,11,12,13,19,19a-dodecahydro-1H,5H-pyrrolo[2,1-c][1,4,7,12] benzoxatriazacyclopentadecine-11-carboxamide]
100	100	0.617	19		69	> 240	> 240	> 60										CN1CC(=O)N2C[C@H](NC(=O)CCc3ccncc3)C[C@H]2COc2ccc(cc2)C(=O)N(C)[C@H](C(=O)NCc2ccc3ccccc3c2)CCC1=O [Ex. 260, (4S,6R,15S)-11,16-dimethyl-N-(2-naphthylmethyl)-9,12,17-trioxo-6-{[3-(4-pyridinyl)propanoyl]amino}-2-oxa-8,11,16-triazatricyclo[16.2.2.0^4,8]docosa-1(20),18,21-triene-15-carboxamide]
96	88		91		95	> 240	> 240	> 60	> 60									CN1CC(=O)N2C[C@@H](N)C[C@H]2COc2ccc(F)cc2C(=O)N(C)[C@@H](C(=O)NCc2ccc3ccccc3c2)CCC1=O [Ex. 91, (2S,11R,19aS)-2-amino-15-fluoro-7,12-dimethyl-N-(2-naphthylmethyl)-5,8,13-trioxo-2,3,6,7,8,9,10,11,12,13,19,19a-dodecahydro-1H,5H-pyrrolo[2,1-c][1,4,7,12] benzoxatriazacyclopentadecine-11-carboxamide]
100	95		61		90	> 240	> 240	> 60	> 60									CN(C)CC(=O)N[C@@H]1C[C@H]2COc3cccc(c3)C(=O)N(C)C[C@H](NC(=O)Cc3ccc4ccccc4c3)C(=O)N(C)CC(=O)N2C1 [Ex. 230, 2-(dimethylamino)-N-[(4S,6R,13S)-11,15-dimethyl-13-{[2-(2-naphthyl)acetyl]amino}-9,12,16-trioxo-2-oxa-8,11,15-triazatricyclo[15.3.1.0^4,8]henicosa-1(21),17,19-trien-6-yl]acetamide]
